Measured values: article PMC10252594 (Cancers, 2023)
“And” between values parts separate entries of the source, which are not always exact repeats. Identical values can stand only once. Like-named read-outs stand apart in the source and are kept apart here.

Experiments:
LAPC-4 xenografts = experiment: Fatty acid determination (GC-FID) in LAPC-4 xenograft experiment; type: in vivo, mice; details: LAPC-4 tumor, 10 mg/kg PO
Description: […] The fatty acid profile was next determined by gas chromatography (GC), coupled with a flame ionization detector (FID), using phosphatidylcholine C21:0 (Avanti Polar Lipids) as an internal standard. The GC model 5890 was from Agilent Technologies (Mississauga, ON, Canada). The capillary column used was a HP-88 (100 m × 0.25 mm, […], Agilent Technologies), and the carrier gas was helium at 1.5 mL/min. A total of 56 fatty acids were identified according to their retention time, using fatty acid mixtures as standards.

PC-3 xenograft = tested on: PC-3 xenograft; set-up: method as in PMID 34681843; details: cited from earlier work
[1] = Dosage of RM-581 in tumors and plasma (LC-MS/MS); type: in vivo, mice; details: for RM-581 in Plasma / RM-581 in Tumor / concentration at 3 h: 3 h after last treatment; for concentration at 3 h / Kp at 3 h: nude, mouse; for Kp at 3 h: tumor/plasma, ng/g = ng/mL assumed, read-out: Concentration Index (Tumor/Plasma)
Description: The mice were weighed at the start and end of the protocol. Tumor area (mm^2) was calculated twice a week using two perpendicular diameters (L and W), which were recorded using a caliper, and the formula L/2 × W/2 × π. The area measured on the first day of treatment was fixed at 100%. At the end of the studies and 3 h after the last treatment, the mice were terminally anesthetized, and their final body weights were measured. Tumors, liver, kidney, and total prostate were collected from mice during necropsy, while blood was collected by cardiac puncture. Tissues and plasma were immediately frozen at −80 °C until analysis.

## C#C[C@]1(O)CC[C@H]2[C@@H]3CCc4cc(OC)c(N5CCN(C(=O)[C@@H]6CCCN6C(=O)c6ccc7ccccc7n6)CC5)cc4[C@H]3CC[C@@]21C [RM-581]
LAPC-4 xenografts; 28 days, Table S1
  FA (5c) w10 15:1, FA RM-581 % of total: 0%
  FA (5t) w10 15:1, FA RM-581: 0 mg/g
  FA (5t) w10 15:1, FA RM-581 % of total: 0%
  FA (7c) w10 17:1, FA RM-581: 0.05 mg/g
  FA (7c) w10 17:1, FA RM-581 % of total: 0.20%
  FA (7t) w10 17:1, FA RM-581: 0.02 mg/g
  FA (7t) w10 17:1, FA RM-581 % of total: 0.09%
  FA (8c11c14c17c) w3 20:4, FA RM-581: 0.04 mg/g
  FA (8c11c14c17c) w3 20:4, FA RM-581 % of total: 0.16%
  FA (8c) w12 20:1, FA RM-581: 0 mg/g
  FA (8c) w12 20:1, FA RM-581 % of total: 0%
  FA (9c12t) w6 18:2, FA RM-581: 0.02 mg/g
  FA (9c12t) w6 18:2, FA RM-581 % of total: 0.09%
  FA (9t12c) w6 18:2, FA RM-581: 0 mg/g
  FA (9t12c) w6 18:2, FA RM-581 % of total: 0%
  FA (9t12t15t) w3 18:3, FA RM-581: 0.01 mg/g
  FA (9t12t15t) w3 18:3, FA RM-581 % of total: 0.03%
  FA (9t) w5 14:1, FA RM-581: 0.01 mg/g
  FA (9t) w5 14:1, FA RM-581 % of total: 0.03%
  FA (9t) w13 22:1, FA RM-581: 0 mg/g
  FA (9t) w13 22:1, FA RM-581 % of total: 0%
  FA (11c14c17c) w3 20:3, FA RM-581: 0 mg/g
  FA (11c14c17c) w3 20:3, FA RM-581 % of total: 0%
  FA (11c14c) w6 20:2, FA RM-581: 0.08 mg/g
  FA (11c14c) w6 20:2, FA RM-581 % of total: 0.34%
  FA (12c) w6 18:1, FA RM-581: 0 mg/g
  FA (12c) w6 18:1, FA RM-581 % of total: 0%
  FA (13c16c19c) w3 22:3, FA RM-581: 0 mg/g
  FA (13c16c19c) w3 22:3, FA RM-581 % of total: 0%
  FA (13c16c) w6 22:2, FA RM-581: 0.01 mg/g
  FA (13c16c) w6 22:2, FA RM-581 % of total: 0.04%
  FA (13c) w5 18:1, FA RM-581: 0.02 mg/g
  FA (13c) w5 18:1, FA RM-581 % of total: 0.07%
  Gamma-linolenic acid (6c9c12c) w6 18:3, FA RM-581: 0.05 mg/g
  Gamma-linolenic acid (6c9c12c) w6 18:3, FA RM-581 % of total: 0.19%
  Gondoic acid (11c) w9 20:1, FA RM-581: 0.08 mg/g
  Gondoic acid (11c) w9 20:1, FA RM-581 % of total: 0.32%
  Isobranched 17:0, FA RM-581: 0.02 mg/g
  Isobranched 17:0, FA RM-581 % of total: 0.08%
  Lauric acid 12:0, FA RM-581: 0.02 mg/g
  Lauric acid 12:0, FA RM-581 % of total: 0.10%
  Linolelaidic acid (9t12t) w6 18:2, FA RM-581: 0.03 mg/g
  Linolelaidic acid (9t12t) w6 18:2, FA RM-581 % of total: 0.14%
  Myristoleic acid (9c) w5 14:1, FA RM-581: 0.02 mg/g
  Myristoleic acid (9c) w5 14:1, FA RM-581 % of total: 0.06%
  Palmitelaidic acid (9t) w1 16:1, FA RM-581: 0 mg/g
  Palmitelaidic acid (9t) w1 16:1, FA RM-581 % of total: 0%
  Pentadecanoic acid 15:0, FA RM-581: 0.04 mg/g
  Pentadecanoic acid 15:0, FA RM-581 % of total: 0.17%
  Petroselaidic acid (6t) w12 18:1, FA RM-581: 0 mg/g
  Petroselaidic acid (6t) w12 18:1, FA RM-581 % of total: 0%
  Petroselinic acid (7c-n11/6c-n12) w11/12 18:1, FA RM-581: 0 mg/g
  Petroselinic acid (7c-n11/6c-n12) w11/12 18:1, FA RM-581 % of total: 0%
  Stearidonic acid (6c9c12c15c) w3 18:4, FA RM-581: 0 mg/g
  Stearidonic acid (6c9c12c15c) w3 18:4, FA RM-581 % of total: 0%
  Timnodonic acid (5c8c11c14c17c) w3 20:5, FA RM-581: 0.025 mg/g
  Timnodonic acid (5c8c11c14c17c) w3 20:5, FA RM-581 % of total: 0.10%
  Trans-vaccenic acid (11t) w7 18:1, FA RM-581: 0.03 mg/g
  Trans-vaccenic acid (11t) w7 18:1, FA RM-581 % of total: 0.13%
LAPC-4 xenografts; 10 mg/kg
  increase in linoleic acid level inside the tumors: 1.59 mg/g and ~ 5.7 mM
  increase in oleic acid level inside the tumors: 1.26 mg/g and ~ 4.5 mM
PC-3 xenograft; PC-3 xenograft, PO
  effective oral dose for tumor regression: 60 mg/kg
PC-3 xenograft; tumors from PC-3 xenografts
  FA and cholesterol in tumors: significant decrease
[1]; 3 mg/kg PO
  RM-581 in Plasma: 15 ng/mL and 0.023 µM
  RM-581 in Tumor: 50 ng/g and 0.077 µM
  Kp at 3 h: 3.3
[1]; 10 mg/kg PO
  RM-581 in Plasma: 30 ng/mL and 0.046 µM
  RM-581 in Tumor: 300 ng/g and 0.464 µM
  Kp at 3 h: 10
[1]; 30 mg/kg PO
  RM-581 in Plasma: 171 ng/mL and 0.265 µM
  RM-581 in Tumor: 940 ng/g and 1.465 µM
  Kp at 3 h: 5.5
[1]; plasma, 30 mg/kg PO, read-out: RM-581 in Plasma
  concentration at 3 h: 171 ng/mL
[1]; plasma, PO, read-out: RM-581 in Plasma
  concentration at 3 h: 15 ng/mL
[1]; tumor, 30 mg/kg PO, read-out: RM-581 in Tumor
  concentration at 3 h: 940 ng/g
[1]; tumor, PO, read-out: RM-581 in Tumor
  concentration at 3 h: 50 ng/g
